Laboratory results as given in publication PMC7188728, “A phase I study investigation of metabolism, and disposition of [^14C]-anlotinib after an oral administration in patients with advanced refractory solid tumors” (Cancer Chemotherapy and Pharmacology, 2020).
Where a name gives a salt, the structure may show the parent alone.

How the values were obtained:
[1] = Total radioactivity pharmacokinetics in plasma after single oral [14C]-anlotinib hydrochloride; type: in vivo, human
Experimental: The blood samples were collected before orally administration and 0.5, 2, 4, 8, 10, 12, 24, 48, 72, 96, 120, 144, 168, 192, 216, 240, 288, 312, 384, 408, 456, 480, 552, 840, 888, and 1416 h after orally administration. An aliquot of the blood samples was mixed gently and chilled immediately under − 20 °C; the remainder was centrifuged at 1660 g for 10 min at 4 °C to separate the plasma samples.
Levels of radioactivity in plasma, urine, and extracts of fecal samples were determined by mixing individual samples with 5 mL scintillation cocktail and determined by counting directly in a liquid scintillation counter (LSC). Blood, fecal homogenates, and post extraction solids were combusted with OX-501 Biological Sample Oxidizer, the ^14CO2 formed were trapped directly in 15 mL scintillation cocktail, followed by counting with LSC. Samples were assayed with a liquid scintillation counter for 5 min.
The peak concentration (Cmax) and the time to Cmax (Tmax) were obtained through the plasma concentration directly. The area under concentration–time curve up to the last measured time point (AUC0−t) was calculated by the trapezoidal rule. The k was estimated by linear regression analysis of the terminal portion of the log concentration–time data, and the elimination half-life (t1/2) was calculated through the coefficient 0.693/k. The renal clearance (CLR) was calculated by dividing the cumulative amount excreted into urine (Cum. Ae−U) by plasma AUC0−t.

[2] = test system: human cytochrome P450 2C9; set-up: method as in PMID 29441353; conditions: in vitro; read-out: Half maximum inhibitory concentration; cited from earlier work
[3] = test system: advanced refractory solid tumors; experiment: Tumor response evaluation in patients with advanced refractory solid tumors; type: in vivo, human; conditions: six patients enrolled
[4] = Adverse events after a single dose of 14C anlotinib suspension; type: in vivo, human
[5] = six male patients, single oral 14.15 mg/80 or 120 µCi
[6] = suspension here vs capsule in the previous study

COc1cc2c(Oc3ccc4[nH]c(C)cc4c3F)ccnc2cc1OCC1(N)CC1 [anlotinib, 1-[[4-(4-fluoro-2-methyl-1H-indol-5-yloxy)-6-methoxyquinolin-7-yl]oxy]methyl) cyclopropanamine dihydrochloride]
twice: AUC relative to the published phase I study [1, 6] | Cmax relative to the published phase I study [1, 6]
4.42 h: Tmax of total radioactivity (TRA) in plasma, average [1, 5]
1 (16.67%) n (%): Alkaline phosphatase increased: number of cases of grade 1/2 (%) ([4]; D1 ~ D18, N = 6) | Anemia: number of cases of grade 1/2 (%) ([4]; D1 ~ D18, N = 6) | Aspartate aminotransferase increased: number of cases of grade 3 (%) ([4]; D1 ~ D18, N = 6) | Cough: number of cases of grade 1/2 (%) ([4]; D1 ~ D18, N = 6) | Diarrhea: number of cases of grade 1/2 (%) ([4]; D1 ~ D18, N = 6) | Hypertriglyceridemia: number of cases of grade 1/2 (%) ([4]; D1 ~ D18, N = 6) | Hypocalcemia: number of cases of grade 1/2 (%) ([4]; D1 ~ D18, N = 6) | Hypophosphatemia: number of cases of grade 1/2 (%) ([4]; D1 ~ D18, N = 6) | Hypophosphatemia: number of cases of grade 3 (%) ([4]; D1 ~ D18, N = 6) | Hypothyroidism: number of cases of grade 1/2 (%) ([4]; D1 ~ D18, N = 6) | Increased alanine aminotransferase: number of cases of grade 1/2 (%) ([4]; D1 ~ D18, N = 6) | Increased alanine aminotransferase: number of cases of grade 3 (%) ([4]; D1 ~ D18, N = 6) | Increased blood bilirubin: number of cases of grade 1/2 (%) ([4]; D1 ~ D18, N = 6) | Increased blood bilirubin: number of cases of grade 3 (%) ([4]; D1 ~ D18, N = 6) | Increased lactate dehydrogenase: number of cases of grade 1/2 (%) ([4]; D1 ~ D18, N = 6) | Increased γ-glutamyl transpeptidase: number of cases of grade 1/2 (%) ([4]; D1 ~ D18, N = 6) | Increased γ-glutamyl transpeptidase: number of cases of grade 3 (%) ([4]; D1 ~ D18, N = 6) | Liver function damage: number of cases of grade 3 (%) ([4]; D1 ~ D18, N = 6) | Proteinuria: number of cases of grade 1/2 (%) ([4]; D1 ~ D18, N = 6) | Rapid atrial fibrillation: number of cases of grade 1/2 (%) ([4]; D1 ~ D18, N = 6) | Sinus bradycardia: number of cases of grade 1/2 (%) ([4]; D1 ~ D18, N = 6) | Sinus tachycardia: number of cases of grade 1/2 (%) ([4]; D1 ~ D18, N = 6) | Stomachache: number of cases of grade 1/2 (%) ([4]; D1 ~ D18, N = 6) | Alkaline phosphatase increased: number of cases of grade 1/2 (%) ([4]; Research process, N = 6) | Anemia: number of cases of grade 1/2 (%) ([4]; Research process, N = 6) | Aspartate aminotransferase increased: number of cases of grade 3 (%) ([4]; Research process, N = 6) | Cough: number of cases of grade 1/2 (%) ([4]; Research process, N = 6) | Hemoptysis: number of cases of grade 1/2 (%) ([4]; Research process, N = 6) | Hypertriglyceridemia: number of cases of grade 1/2 (%) ([4]; Research process, N = 6) | Hypocalcemia: number of cases of grade 1/2 (%) ([4]; Research process, N = 6) | Hypophosphatemia: number of cases of grade 1/2 (%) ([4]; Research process, N = 6) | Hypophosphatemia: number of cases of grade 3 (%) ([4]; Research process, N = 6) | Hypothyroidism: number of cases of grade 1/2 (%) ([4]; Research process, N = 6) | Increased alanine aminotransferase: number of cases of grade 1/2 (%) ([4]; Research process, N = 6) | Increased alanine aminotransferase: number of cases of grade 3 (%) ([4]; Research process, N = 6) | Increased blood bilirubin: number of cases of grade 1/2 (%) ([4]; Research process, N = 6) | Increased blood bilirubin: number of cases of grade 3 (%) ([4]; Research process, N = 6) | Increased lactate dehydrogenase: number of cases of grade 1/2 (%) ([4]; Research process, N = 6) | Increased γ-glutamyl transpeptidase: number of cases of grade 1/2 (%) ([4]; Research process, N = 6) | Increased γ-glutamyl transpeptidase: number of cases of grade 3 (%) ([4]; Research process, N = 6) | Liver function damage: number of cases of grade 3 (%) ([4]; Research process, N = 6) | Proteinuria: number of cases of grade 1/2 (%) ([4]; Research process, N = 6) | Rapid atrial fibrillation: number of cases of grade 1/2 (%) ([4]; Research process, N = 6) | Sinus bradycardia: number of cases of grade 1/2 (%) ([4]; Research process, N = 6) | Sinus tachycardia: number of cases of grade 1/2 (%) ([4]; Research process, N = 6) | Stomachache: number of cases of grade 1/2 (%) ([4]; Research process, N = 6)
4071 h∙ng Eq./g: AUC0-last (AUClast) of total radioactivity in plasma, average [1, 5]
5 (83.33%) n (%): At least once (any adverse event): number of cases of grade 1/2 (%) ([4]; D1 ~ D18, N = 6)
250 nM: IC50 [2]
one: Tumor response: partial response (PR) [3] | Tumor response: progressive disease (PD) [3] | Patients in whom severe adverse events (SAE) occurred ([4]; six patients, follow-up period)
0 n (%): Alkaline phosphatase increased: number of cases of grade 3 (%) ([4]; D1 ~ D18, N = 6) | Anemia: number of cases of grade 3 (%) ([4]; D1 ~ D18, N = 6) | Aspartate aminotransferase increased: number of cases of grade 1/2 (%) ([4]; D1 ~ D18, N = 6) | Constipation: number of cases of grade 3 (%) ([4]; D1 ~ D18, N = 6) | Cough: number of cases of grade 3 (%) ([4]; D1 ~ D18, N = 6) | Diarrhea: number of cases of grade 3 (%) ([4]; D1 ~ D18, N = 6) | Hemoptysis: number of cases of grade 1/2 (%) ([4]; D1 ~ D18, N = 6) | Hemoptysis: number of cases of grade 3 (%) ([4]; D1 ~ D18, N = 6) | Hypertriglyceridemia: number of cases of grade 3 (%) ([4]; D1 ~ D18, N = 6) | Hypoalbuminemia: number of cases of grade 3 (%) ([4]; D1 ~ D18, N = 6) | Hypocalcemia: number of cases of grade 3 (%) ([4]; D1 ~ D18, N = 6) | Hypothyroidism: number of cases of grade 3 (%) ([4]; D1 ~ D18, N = 6) | Increased lactate dehydrogenase: number of cases of grade 3 (%) ([4]; D1 ~ D18, N = 6) | Insomnia: number of cases of grade 3 (%) ([4]; D1 ~ D18, N = 6) | Liver function damage: number of cases of grade 1/2 (%) ([4]; D1 ~ D18, N = 6) | Proteinuria: number of cases of grade 3 (%) ([4]; D1 ~ D18, N = 6) | Rapid atrial fibrillation: number of cases of grade 3 (%) ([4]; D1 ~ D18, N = 6) | Sinus bradycardia: number of cases of grade 3 (%) ([4]; D1 ~ D18, N = 6) | Sinus tachycardia: number of cases of grade 3 (%) ([4]; D1 ~ D18, N = 6) | Stomachache: number of cases of grade 3 (%) ([4]; D1 ~ D18, N = 6) | Alkaline phosphatase increased: number of cases of grade 3 (%) ([4]; Research process, N = 6) | Anemia: number of cases of grade 3 (%) ([4]; Research process, N = 6) | Aspartate aminotransferase increased: number of cases of grade 1/2 (%) ([4]; Research process, N = 6) | Constipation: number of cases of grade 3 (%) ([4]; Research process, N = 6) | Cough: number of cases of grade 3 (%) ([4]; Research process, N = 6) | Diarrhea: number of cases of grade 3 (%) ([4]; Research process, N = 6) | Hemoptysis: number of cases of grade 3 (%) ([4]; Research process, N = 6) | Hypertriglyceridemia: number of cases of grade 3 (%) ([4]; Research process, N = 6) | Hypoalbuminemia: number of cases of grade 3 (%) ([4]; Research process, N = 6) | Hypocalcemia: number of cases of grade 3 (%) ([4]; Research process, N = 6) | Hypothyroidism: number of cases of grade 3 (%) ([4]; Research process, N = 6) | Increased lactate dehydrogenase: number of cases of grade 3 (%) ([4]; Research process, N = 6) | Insomnia: number of cases of grade 3 (%) ([4]; Research process, N = 6) | Liver function damage: number of cases of grade 1/2 (%) ([4]; Research process, N = 6) | Proteinuria: number of cases of grade 3 (%) ([4]; Research process, N = 6) | Rapid atrial fibrillation: number of cases of grade 3 (%) ([4]; Research process, N = 6) | Sinus bradycardia: number of cases of grade 3 (%) ([4]; Research process, N = 6) | Sinus tachycardia: number of cases of grade 3 (%) ([4]; Research process, N = 6) | Stomachache: number of cases of grade 3 (%) ([4]; Research process, N = 6)
3 (50%) n (%): At least once (any adverse event): number of cases of grade 3 (%) ([4]; D1 ~ D18, N = 6) | Hypoalbuminemia: number of cases of grade 1/2 (%) ([4]; D1 ~ D18, N = 6) | At least once (any adverse event): number of cases of grade 3 (%) ([4]; Research process, N = 6) | Hypoalbuminemia: number of cases of grade 1/2 (%) ([4]; Research process, N = 6)
2 (33.33%) n (%): Constipation: number of cases of grade 1/2 (%) ([4]; D1 ~ D18, N = 6) | Increased lipase: number of cases of grade 1/2 (%) ([4]; D1 ~ D18, N = 6) | Increased lipase: number of cases of grade 3 (%) ([4]; D1 ~ D18, N = 6) | Insomnia: number of cases of grade 1/2 (%) ([4]; D1 ~ D18, N = 6) | Constipation: number of cases of grade 1/2 (%) ([4]; Research process, N = 6) | Diarrhea: number of cases of grade 1/2 (%) ([4]; Research process, N = 6) | Increased lipase: number of cases of grade 1/2 (%) ([4]; Research process, N = 6) | Increased lipase: number of cases of grade 3 (%) ([4]; Research process, N = 6) | Insomnia: number of cases of grade 1/2 (%) ([4]; Research process, N = 6)
13,555 h∙ng Eq./g: AUC0-∞ of total radioactivity in plasma, average [1, 5]
18.80 ng Eq./g: Cmax of total radioactivity (TRA) in plasma, average [1, 5]
five: Patients in whom adverse events occurred ([4]; six patients, after a single dosage)
